# Assay results as given in patent US6908628B2, “Disinfectant and antiseptic composition” (priority 2001, dated 2005).
# What was measured:
# Assay type in all cases: cell-based
# spores of B subtilis = test: Sporicidal effect on commercial cellulose germ holder; settings: reference disinfectant as such; 10 minutes
# Experimental: In this case, another more demanding test was used, since the sporicidal effect was assessed. It is similar to the bactericidal effect, but instead of contaminated instruments, a commercial, cellulose germ holder was used, impregnated in spores. In fact, this is the biological control used in sterilisation by ethylene oxide: spores of B subtilis, at a concentration guaranteed by the manufacturer (3M) and which exceed a million spores per germ holder. The rest was similar to that described in the endodontic file method.
# [1] = system: S. aureus, S. epidermidis, E. faecalis, E. coli, K. pneumoniae, E. cloacae, P. mirabilis, Acinetobacter baumanii, P. aeruginosa, C. albicans, Mycobacterium …; test: Bactericidal effect on endodontic files, whole panel of Example 1; settings: 20 minutes
# Experimental: For the determination of these three effects, the methods described by Herruzo et al in 1999 were used (Rev Stomatol Chir maxillofac 1999; 100: 299-305), which may be resumed as follows: • a) Bactericidal effect on instruments difficult to disinfect: No. 25 endodontic files.
# These files are contaminated in a micro-organism for 30 minutes and after drying for 15 minutes in an oblique position, they are introduced in the disinfectant for 5, 10, 15, 20, etc. minutes. Afterwards, they are removed and submerged in a tube with glass beads and a disinfectant inhibitor (broth plus 6% Tween 80, plus 0.5% sodium bisulphite and 0.5% sodium thiosulphate). The tubes are then stirred for 1 minute to detach the surviving micro-organisms, and samples are cultured over the entire surface of agar plates with the culture medium suitable for the tested micro-organism (Müeller-Hinton or Saboureaud-dextrose for yeasts or HIB for mycobacteria, etc.). […] It is recorded if there was any deterioration or not and the time at which it occurred. […]
# S. aureus = test: MIC in a solid medium; settings: expressed as dilution of the product
# Text: (§1) This is shown by means of its MIC (minimum inhibiting concentration).
# (§2) A MIC is obtained in a solid medium against S. aureus and P. aeruginosa.
# P. aeruginosa = test: MIC in a solid medium; settings: expressed as dilution of the product
# Text: as §1, §2
Molecule,reduction of the spore inoculum (spores of B subtilis),bactericidal effect against Mycobacterium [1],MIC (minimum inhibiting concentration) (S. aureus),MIC (minimum inhibiting concentration) (P. aeruginosa)
"O=CCCCC=O [2% glutaraldehyde, glutaraldehyde]",1.5 log 10,did not completely destroyed the inoculum,,
"[H]/N=C(\N/C(=N/[H])NCCCCCCNC(=N)NC(=N)Nc1ccc(Cl)cc1)Nc1ccc(Cl)cc1 [Clo, Chlorhexidine]",,,1/20480,1/2560
Didecyl-metyl-polyoxy-ethyl-ammonium propionate,,,1/20480,1/160
